Experimental data: ChEMBL document CHEMBL4229381, “New cytokinin derivatives possess UVA and UVB photoprotective effect on human skin cells and prevent oxidative stress” (Eur J Med Chem, 2018)
Active and inactive are the calls of the source. The calls are words filed in the database; no cut-off is given here.

Key:
[1] = Antioxidant activity assessed as trolox equivalent of AAPH-induced radical scavenging activity at 1 uM pretreated for 15 mins followed by […] challenge measured every 3 mins over 90 mins by ORAC-FL assay; assay type: functional
[2] = Cytotoxicity in human NHDF cells assessed as cell viability at 31.3 uM after 24 hrs by neutral red uptake assay relative to control; assay type: cell-based; settings: read-out: Activity
[3] = Cytotoxicity in human NHDF cells assessed as cell viability at 15.6 uM after 24 hrs by neutral red uptake assay relative to control; assay type: cell-based; settings: read-out: Activity
[4] = tested on: Nicotiana tabacum; test: Growth promoting activity in tobacco callus assessed as callus weight at 10^-5 mol/L after 4 weeks relative to control; assay type: functional
[5] = Cytotoxicity in human NHDF cells assessed as cell viability at 62.5 uM after 24 hrs by neutral red uptake assay relative to control; assay type: cell-based; settings: read-out: Activity
[6] = Phototoxicity in human HaCaT cells assessed as cell viability at 62.5 uM preincubated for 60 mins followed by 7.5 J/cm2 UVA irradiation and measured after 24 hrs by neutral red uptake assay relative to control; assay type: cell-based; settings: read-out: Activity
[7] = Cytotoxicity in human HaCaT cells assessed as cell viability at 62.5 uM after 24 hrs by neutral red uptake assay relative to control; assay type: cell-based; settings: read-out: Activity
[8] = tested on: HaCaT; test: Cytotoxicity in human HaCaT cells assessed as reduction in cell viability at 50 uM after 24 hrs by resazurin dye-based fluorescence assay relative to control
[9] = Phototoxicity in human NHDF cells assessed as cell viability at 15.6 uM preincubated for 60 mins followed by 5 J/cm2 UVA irradiation and measured after 24 hrs by neutral red uptake assay relative to control; assay type: cell-based; settings: read-out: Activity
[10] = Cytotoxicity in human HaCaT cells assessed as cell viability at 7.8 uM after 24 hrs by neutral red uptake assay relative to control; assay type: cell-based; settings: read-out: Activity
[11] = Phototoxicity in human NHDF cells assessed as cell viability at 31.3 uM preincubated for 60 mins followed by 5 J/cm2 UVA irradiation and measured after 24 hrs by neutral red uptake assay relative to control; assay type: cell-based; settings: read-out: Activity
[12] = tested on: HaCaT; test: Cytoprotection against phototoxicity in human HaCaT cells assessed as increase in cell viability at 3.9 uM preincubated for 60 mins followed by 10 J/cm2 UVA irradiation and measured after 24 hrs by neutral red uptake assay; assay type: functional, cell-based
[13] = tested on: Triticum aestivum; test: Anti-senescent activity in leaf of Triticum aestivum cv. Hereward seedlings by measuring chlorophyll retention at 10^-4 mol/L after 4 days relative to control; assay type: functional
[14] = Phototoxicity in human HaCaT cells assessed as cell viability at 125 uM preincubated for 60 mins followed by 7.5 J/cm2 UVA irradiation and measured after 24 hrs by neutral red uptake assay relative to control; assay type: cell-based; settings: read-out: Activity
[15] = Phototoxicity in human HaCaT cells assessed as cell viability at 7.8 uM preincubated for 60 mins followed by 7.5 J/cm2 UVA irradiation and measured after 24 hrs by neutral red uptake assay relative to control; assay type: cell-based; settings: read-out: Activity
[16] = Phototoxicity in human HaCaT cells assessed as cell viability at 15.6 uM preincubated for 60 mins followed by 7.5 J/cm2 UVA irradiation and measured after 24 hrs by neutral red uptake assay relative to control; assay type: cell-based; settings: read-out: Activity
[17] = Cytotoxicity in human NHDF cells assessed as cell viability at 125 uM after 24 hrs by neutral red uptake assay relative to control; assay type: cell-based; settings: read-out: Activity
[18] = Cytotoxicity in human HaCaT cells assessed as cell viability at 15.6 uM after 24 hrs by neutral red uptake assay relative to control; assay type: cell-based; settings: read-out: Activity
[19] = Phototoxicity in human NHDF cells assessed as cell viability at 62.5 uM preincubated for 60 mins followed by 5 J/cm2 UVA irradiation and measured after 24 hrs by neutral red uptake assay relative to control; assay type: cell-based; settings: read-out: Activity
[20] = Phototoxicity in human NHDF cells assessed as cell viability at 125 uM preincubated for 60 mins followed by 5 J/cm2 UVA irradiation and measured after 24 hrs by neutral red uptake assay relative to control; assay type: cell-based; settings: read-out: Activity
[21] = Phototoxicity in human NHDF cells assessed as cell viability at 3.9 uM preincubated for 60 mins followed by 5 J/cm2 UVA irradiation and measured after 24 hrs by neutral red uptake assay relative to control; assay type: cell-based; settings: read-out: Activity
[22] = Cytotoxicity in human NHDF cells assessed as cell viability at 3.9 uM after 24 hrs by neutral red uptake assay relative to control; assay type: cell-based; settings: read-out: Activity
[23] = Cytotoxicity in human HaCaT cells assessed as cell viability at 3.9 uM after 24 hrs by neutral red uptake assay relative to control; assay type: cell-based; settings: read-out: Activity
[24] = Cytotoxicity in human HaCaT cells assessed as cell viability at 125 uM after 24 hrs by neutral red uptake assay relative to control; assay type: cell-based; settings: read-out: Activity
[25] = Phototoxicity in human HaCaT cells assessed as cell viability at 31.3 uM preincubated for 60 mins followed by 7.5 J/cm2 UVA irradiation and measured after 24 hrs by neutral red uptake assay relative to control; assay type: cell-based; settings: read-out: Activity
[26] = Phototoxicity in human NHDF cells assessed as cell viability at 7.8 uM preincubated for 60 mins followed by 5 J/cm2 UVA irradiation and measured after 24 hrs by neutral red uptake assay relative to control; assay type: cell-based; settings: read-out: Activity
[27] = tested on: BJ; test: Cytotoxicity in human BJ cells assessed as reduction in cell viability at 50 uM after 24 hrs by resazurin dye-based fluorescence assay relative to control
[28] = Cytotoxicity in human NHDF cells assessed as cell viability at 7.8 uM after 24 hrs by neutral red uptake assay relative to control; assay type: cell-based; settings: read-out: Activity
[29] = Phototoxicity in human HaCaT cells assessed as cell viability at 3.9 uM preincubated for 60 mins followed by 7.5 J/cm2 UVA irradiation and measured after 24 hrs by neutral red uptake assay relative to control; assay type: cell-based; settings: read-out: Activity
[30] = Cytotoxicity in human HaCaT cells assessed as cell viability at 31.3 uM after 24 hrs by neutral red uptake assay relative to control; assay type: cell-based; settings: read-out: Activity
[31] = tested on: Caenorhabditis elegans; test: Protection against juglone-induced oxidative stress in Caenorhabditis elegans BA17 (fem-1) at 100 uM preincubated for 3 days followed by juglone addition measured every hour for 12 ro 14 hrs by inverted microscopic analysis; assay type: functional, organism-based
[32] = tested on: Amaranthus caudatus; test: Growth promoting activity in Amaranthus caudatus var. atropurpurea seeds by measuring betacyanin at 10^-4 mol/L after 48 hrs relative to control; assay type: functional
[33] = tested on: NHDF; test: Cytoprotection against phototoxicity in human NHDF cells assessed as increase in cell viability at 3.9 to 31.3 uM preincubated for 60 mins followed by 7.5 J/cm2 UVA irradiation and measured after 24 hrs by neutral red uptake assay; assay type: functional, cell-based
[34] = tested on: NHDF; test: Cytoprotection against phototoxicity in human NHDF cells assessed as increase in cell viability at 3.9 to 31.3 uM preincubated for 60 mins followed by 150 mJ/cm2 UVB irradiation and measured after 24 hrs by neutral red uptake assay; assay type: functional, cell-based
[35] = Stability of the compound in pH 5 solution at 10^-4 M after 24 hrs by HPLC analysis; assay type: physicochemical; settings: read-out: Stability
[36] = Stability of the compound in pH 3 solution at 10^-4 M after 24 hrs by HPLC analysis; assay type: physicochemical; settings: read-out: Stability
[37] = Stability of the compound in pH 4 solution at 10^-4 M after 24 hrs by HPLC analysis; assay type: physicochemical; settings: read-out: Stability
[38] = Stability of the compound in pH 5 solution at 10^-4 M after 1 hr by HPLC analysis; assay type: physicochemical; settings: read-out: Stability
[39] = Stability of the compound in pH 6 solution at 10^-4 M after 1 hr by HPLC analysis; assay type: physicochemical; settings: read-out: Stability
[40] = Stability of the compound in pH 3 solution at 10^-4 M after 1 hr by HPLC analysis; assay type: physicochemical; settings: read-out: Stability
[41] = Stability of the compound in pH 4 solution at 10^-4 M after 1 hr by HPLC analysis; assay type: physicochemical; settings: read-out: Stability
[42] = tested on: Caenorhabditis elegans; test: Protection against juglone-induced oxidative stress in wild type Caenorhabditis elegans N2 at 100 uM preincubated for 3 days followed by juglone addition and measured after 4 hrs by inverted microscopic analysis; assay type: functional, organism-based
[43] = Stability of the compound in pH 6 solution at 10^-4 M after 24 hrs by HPLC analysis; assay type: physicochemical; settings: read-out: Stability

## OCc1ccc(CNc2ncnc3c2ncn3C2CCCO2)o1 (configuration not stated)
[1]
  Activity: 0.77 equiv
[2]
  viability at 24 h, 31.3 µM: 108%
[3]
  viability at 24 h, 15.6 µM: 104%
[4]
  Activity: 103%
[5]
  viability at 24 h, 62.5 µM: 107%
[6]
  viability at 24 h, 62.5 µM: 121%
[7]
  viability at 24 h, 62.5 µM: 106%
[8]
  Activity: < 10%
[9]
  viability at 24 h, 15.6 µM: 102%
[10]
  viability at 24 h, 7.8 µM: 100%
[11]
  viability at 24 h, 31.3 µM: 107%
[12]
  Activity: Active
[13]
  Activity: 75%
[14]
  viability at 24 h, 125 µM: 125%
[15]
  viability at 24 h, 7.8 µM: 111%
[16]
  viability at 24 h, 15.6 µM: 108%
[17]
  viability at 24 h, 125 µM: 110%
[18]
  viability at 24 h, 15.6 µM: 102%
[19]
  viability at 24 h, 62.5 µM: 111%
[20]
  viability at 24 h, 125 µM: 112%
[21]
  viability at 24 h, 3.9 µM: 101%
[22]
  viability at 24 h, 3.9 µM: 103%
[23]
  viability at 24 h, 3.9 µM: 100%
[24]
  viability at 24 h, 125 µM: 110%
[25]
  viability at 24 h, 31.3 µM: 118%
[26]
  viability at 24 h, 7.8 µM: 107%
[27]
  Activity: < 10%
[28]
  viability at 24 h, 7.8 µM: 105%
[29]
  viability at 24 h, 3.9 µM: 104%
[30]
  viability at 24 h, 31.3 µM: 108%

## c1coc(CNc2ncnc3c2ncn3C2CCCO2)c1 (configuration not stated)
[31]
  Activity: Active
[4]
  Activity: 111%
[13]
  Activity: 125%
[32]
  Activity: 70%
[33]
  Activity: Active
[34]
  Activity: Active

## Clc1nc(NCc2ccco2)c2ncn(C3CCCO3)c2n1 (configuration not stated)
[31]
  Activity: Active
[1]
  Activity: < 0.05 equiv
[2]
  viability at 24 h, 31.3 µM: 105%
[3]
  viability at 24 h, 15.6 µM: 104%
[35]
  remaining at 24 h, 100 µM: 92.9%
[4]
  Activity: 112%
[5]
  viability at 24 h, 62.5 µM: 106%
[6]
  viability at 24 h, 62.5 µM: 116%
[36]
  remaining at 24 h, 100 µM: 0.9%
[37]
  remaining at 24 h, 100 µM: 51.7%
[7]
  viability at 24 h, 62.5 µM: 110%
[8]
  Activity: < 10%
[9]
  viability at 24 h, 15.6 µM: 103%
[10]
  viability at 24 h, 7.8 µM: 107%
[38]
  remaining at 1 h, 100 µM: 100%
[11]
  viability at 24 h, 31.3 µM: 103%
[39]
  remaining at 1 h, 100 µM: 100%
[12]
  Activity: Active
[40]
  remaining at 1 h, 100 µM: 98.8%
[13]
  Activity: 75%
[14]
  viability at 24 h, 125 µM: 104%
[32]
  Activity: 88%
[15]
  viability at 24 h, 7.8 µM: 120%
[16]
  viability at 24 h, 15.6 µM: 120%
[41]
  remaining at 1 h, 100 µM: 100%
[17]
  viability at 24 h, 125 µM: 101%
[18]
  viability at 24 h, 15.6 µM: 109%
[42]
  Activity: Active
[19]
  viability at 24 h, 62.5 µM: 103%
[20]
  viability at 24 h, 125 µM: 97%
[21]
  viability at 24 h, 3.9 µM: 100%
[22]
  viability at 24 h, 3.9 µM: 100%
[43]
  remaining at 24 h, 100 µM: 100%
[23]
  viability at 24 h, 3.9 µM: 107%
[24]
  viability at 24 h, 125 µM: 105%
[25]
  viability at 24 h, 31.3 µM: 119%
[26]
  viability at 24 h, 7.8 µM: 102%
[27]
  Activity: < 10%
[28]
  viability at 24 h, 7.8 µM: 104%
[29]
  viability at 24 h, 3.9 µM: 116%
[30]
  viability at 24 h, 31.3 µM: 109%
